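GI50 is the concentration that inhibits growth by half. Definition used: TGI = concentration required for complete inhibition of growth.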
Experiments:
Experiment in all cases: DTP human tumour cell line panel, 384-well format
786-0 renal = tested on: 786-0 renal
A498 renal = tested on: A498 renal
A549 NSCLC = tested on: A549 NSCLC
ACHN renal = tested on: ACHN renal
BT-549 breast = tested on: BT-549 breast
CAKI-1 renal = tested on: CAKI-1 renal
CCRF-CEM leukemia = tested on: CCRF-CEM leukemia
COLO 205 colon = tested on: COLO 205 colon
DU-145 prostate = tested on: DU-145 prostate
EKVX NSCLC = tested on: EKVX NSCLC
HCC-2998 colon = tested on: HCC-2998 colon
HCT-116 colon = tested on: HCT-116 colon
HCT-15 colon = tested on: HCT-15 colon
HOP-62 NSCLC = tested on: HOP-62 NSCLC
HOP-92 NSCLC = tested on: HOP-92 NSCLC
HS 578T breast = tested on: HS 578T breast
HT29 colon = tested on: HT29 colon
IGROV1 ovarian = tested on: IGROV1 ovarian
K-562 leukemia = tested on: K-562 leukemia
KM12 colon = tested on: KM12 colon
LOX IMVI melanoma = tested on: LOX IMVI melanoma
M14 melanoma = tested on: M14 melanoma
MALME-3M melanoma = tested on: MALME-3M melanoma
MCF7 breast = tested on: MCF7 breast
MDA-MB-231 breast = tested on: MDA-MB-231 breast
MDA-MB-435 melanoma = tested on: MDA-MB-435 melanoma
MDA-MB-468 breast = tested on: MDA-MB-468 breast
MOLT-4 leukemia = tested on: MOLT-4 leukemia
NCI-H226 lung = tested on: NCI-H226 lung
NCI-H23 lung = tested on: NCI-H23 lung
NCI-H322M lung = tested on: NCI-H322M lung
NCI-H460 NSCLC = tested on: NCI-H460 NSCLC
NCI-H522 lung = tested on: NCI-H522 lung
NCI/ADR-RES ovarian = tested on: NCI/ADR-RES ovarian
OVCAR-3 ovarian = tested on: OVCAR-3 ovarian
OVCAR-4 ovarian = tested on: OVCAR-4 ovarian
OVCAR-5 ovarian = tested on: OVCAR-5 ovarian
OVCAR-8 ovarian = tested on: OVCAR-8 ovarian
PC-3 prostate = tested on: PC-3 prostate
RPMI-8226 leukemia = tested on: RPMI-8226 leukemia
RXF 393 renal = tested on: RXF 393 renal
SF-268 CNS = tested on: SF-268 CNS
SF-295 CNS = tested on: SF-295 CNS
SF-539 CNS = tested on: SF-539 CNS
SK-MEL-28 melanoma = tested on: SK-MEL-28 melanoma
SK-MEL-5 melanoma = tested on: SK-MEL-5 melanoma
SK-OV-3 ovarian = tested on: SK-OV-3 ovarian
SN12C renal = tested on: SN12C renal
SNB-19 CNS = tested on: SNB-19 CNS
SNB-75 CNS = tested on: SNB-75 CNS
SR leukemia = tested on: SR leukemia
SW-620 colon = tested on: SW-620 colon
T-47D breast = tested on: T-47D breast
TK-10 renal = tested on: TK-10 renal
U251 glioblastoma = tested on: U251 glioblastoma
UACC-257 melanoma = tested on: UACC-257 melanoma
UO-31 renal = tested on: UO-31 renal

## COc1cccc2c1ccc1nc3cccc(C(=O)N[C@H](C)CN(C)C)c3nc12
786-0 renal
  GI50: 57.5 nM
  TGI: 861 nM
A498 renal
  GI50: 51.1 nM
  TGI: 384 nM
A549 NSCLC
  GI50: 42.9 nM
  TGI: 904 nM
ACHN renal
  GI50: 28.3 nM
  TGI: 243 nM
BT-549 breast
  GI50: 125 nM
  TGI: 268 nM
CAKI-1 renal
  GI50: 37.3 nM
  TGI: 2720 nM
CCRF-CEM leukemia
  GI50: 42.3 nM
  TGI: 160 nM
COLO 205 colon
  GI50: 12.8 nM
  TGI: 99.9 nM
DU-145 prostate
  GI50: 69.2 nM
  TGI: 524 nM
EKVX NSCLC
  GI50: 156 nM
  TGI: 380 nM
HCC-2998 colon
  GI50: 41.4 nM
  TGI: 162 nM
HCT-116 colon
  GI50: 35.3 nM
  TGI: 1080 nM
HCT-15 colon
  GI50: 41.3 nM
  TGI: 187 nM
HOP-62 NSCLC
  GI50: 56 nM
  TGI: 231 nM
HOP-92 NSCLC
  GI50: 92 nM
  TGI: 1620 nM
HS 578T breast
  GI50: 141 nM
  TGI: 289 nM
HT29 colon
  GI50: 103 nM
  TGI: 11800 nM
IGROV1 ovarian
  GI50: 61.9 nM
  TGI: 609 nM
K-562 leukemia
  GI50: 45.4 nM
  TGI: 156 nM
KM12 colon
  GI50: 84.7 nM
  TGI: 881 nM
LOX IMVI melanoma
  GI50: 45.9 nM
  TGI: 155 nM
M14 melanoma
  GI50: 101 nM
  TGI: 225 nM
MALME-3M melanoma
  GI50: 28.3 nM
  TGI: 68 nM
MCF7 breast
  GI50: 46.7 nM
  TGI: 1100 nM
MDA-MB-231 breast
  GI50: 110 nM
  TGI: 393 nM
MDA-MB-435 melanoma
  GI50: 106 nM
  TGI: 229 nM
MDA-MB-468 breast
  GI50: 23.8 nM
  TGI: 63.9 nM
MOLT-4 leukemia
  GI50: 15.5 nM
  TGI: 29.1 nM
NCI-H226 lung
  GI50: 73.4 nM
  TGI: 340 nM
NCI-H23 lung
  GI50: 91.5 nM
  TGI: 216 nM
NCI-H322M lung
  GI50: 115 nM
  TGI: 361 nM
NCI-H460 NSCLC
  GI50: 34.4 nM
  TGI: 112 nM
NCI-H522 lung
  GI50: 102 nM
  TGI: 278 nM
NCI/ADR-RES ovarian
  GI50: 55.2 nM
  TGI: 215 nM
OVCAR-3 ovarian
  GI50: 72.9 nM
  TGI: 292 nM
OVCAR-4 ovarian
  GI50: 130 nM
  TGI: 388 nM
OVCAR-5 ovarian
  GI50: 127 nM
  TGI: 12200 nM
OVCAR-8 ovarian
  GI50: 96.8 nM
  TGI: 273 nM
PC-3 prostate
  GI50: 142 nM
  TGI: 603 nM
RPMI-8226 leukemia
  GI50: 27.1 nM
  TGI: 74.6 nM
RXF 393 renal
  GI50: 111 nM
  TGI: 242 nM
SF-268 CNS
  GI50: 63.5 nM
  TGI: 228 nM
SF-295 CNS
  GI50: 37.6 nM
  TGI: 221 nM
SF-539 CNS
  GI50: 52.8 nM
  TGI: 174 nM
SK-MEL-28 melanoma
  GI50: 123 nM
  TGI: 291 nM
SK-MEL-5 melanoma
  GI50: 35.3 nM
  TGI: 90.4 nM
SK-OV-3 ovarian
  GI50: 85 nM
  TGI: 430 nM
SN12C renal
  GI50: 77.4 nM
  TGI: 249 nM
SNB-19 CNS
  GI50: 75.2 nM
  TGI: 1050 nM
SNB-75 CNS
  GI50: 111 nM
  TGI: 238 nM
SR leukemia
  TGI: 20.4 nM
SW-620 colon
  GI50: 29.9 nM
  TGI: 290 nM
T-47D breast
  GI50: 117 nM
  TGI: 315 nM
TK-10 renal
  GI50: 90.5 nM
  TGI: 554 nM
U251 glioblastoma
  GI50: 57.8 nM
  TGI: 311 nM
UACC-257 melanoma
  GI50: 104 nM
  TGI: 230 nM
UO-31 renal
  GI50: 56.1 nM
  TGI: 398 nM

Reference: PubChem BioAssay (NCI)
